Experimental data reported in US20260224588A1, “BENZODIAZEPINONE-DERIVED INHIBITORS OF EGFR AND HER2” (The Research Foundation for the State University of New York, priority 2023, published 2026).

Legend:
Assay in all cases: KINOMEscan
Type in all cases: binding
Details in all cases: 1 μM of compound 4; read-out: POC
CASK = CASK (Homo sapiens, UniProt O14936)
MYLK4 = MYLK4 (Homo sapiens, UniProt Q86YV6)
VEGFR2 = biological target: T1, VEGFR2 (Homo sapiens, UniProt P35968)
T1 construct: purchased Eurofins DiscoverX

PIK3CA(E545K) = PIK3CA(E545K) (Homo sapiens, UniProt P42336, E545K)
AKT3 = AKT3 (Homo sapiens, UniProt Q9Y243)
AKT3, sequence (Q9Y243 whole entry): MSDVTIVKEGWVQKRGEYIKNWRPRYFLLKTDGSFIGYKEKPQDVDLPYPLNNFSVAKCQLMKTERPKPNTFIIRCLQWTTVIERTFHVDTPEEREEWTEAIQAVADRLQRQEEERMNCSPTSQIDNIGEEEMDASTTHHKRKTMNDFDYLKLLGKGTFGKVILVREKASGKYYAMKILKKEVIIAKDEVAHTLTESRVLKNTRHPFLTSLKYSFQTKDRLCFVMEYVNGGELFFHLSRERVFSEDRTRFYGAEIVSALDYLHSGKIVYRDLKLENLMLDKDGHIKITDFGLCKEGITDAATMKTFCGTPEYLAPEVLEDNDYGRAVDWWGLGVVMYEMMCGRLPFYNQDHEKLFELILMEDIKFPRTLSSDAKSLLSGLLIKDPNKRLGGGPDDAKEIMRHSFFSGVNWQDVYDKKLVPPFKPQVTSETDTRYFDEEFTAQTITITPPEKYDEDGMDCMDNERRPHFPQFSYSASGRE

T1 sequence (P35968 20-1356): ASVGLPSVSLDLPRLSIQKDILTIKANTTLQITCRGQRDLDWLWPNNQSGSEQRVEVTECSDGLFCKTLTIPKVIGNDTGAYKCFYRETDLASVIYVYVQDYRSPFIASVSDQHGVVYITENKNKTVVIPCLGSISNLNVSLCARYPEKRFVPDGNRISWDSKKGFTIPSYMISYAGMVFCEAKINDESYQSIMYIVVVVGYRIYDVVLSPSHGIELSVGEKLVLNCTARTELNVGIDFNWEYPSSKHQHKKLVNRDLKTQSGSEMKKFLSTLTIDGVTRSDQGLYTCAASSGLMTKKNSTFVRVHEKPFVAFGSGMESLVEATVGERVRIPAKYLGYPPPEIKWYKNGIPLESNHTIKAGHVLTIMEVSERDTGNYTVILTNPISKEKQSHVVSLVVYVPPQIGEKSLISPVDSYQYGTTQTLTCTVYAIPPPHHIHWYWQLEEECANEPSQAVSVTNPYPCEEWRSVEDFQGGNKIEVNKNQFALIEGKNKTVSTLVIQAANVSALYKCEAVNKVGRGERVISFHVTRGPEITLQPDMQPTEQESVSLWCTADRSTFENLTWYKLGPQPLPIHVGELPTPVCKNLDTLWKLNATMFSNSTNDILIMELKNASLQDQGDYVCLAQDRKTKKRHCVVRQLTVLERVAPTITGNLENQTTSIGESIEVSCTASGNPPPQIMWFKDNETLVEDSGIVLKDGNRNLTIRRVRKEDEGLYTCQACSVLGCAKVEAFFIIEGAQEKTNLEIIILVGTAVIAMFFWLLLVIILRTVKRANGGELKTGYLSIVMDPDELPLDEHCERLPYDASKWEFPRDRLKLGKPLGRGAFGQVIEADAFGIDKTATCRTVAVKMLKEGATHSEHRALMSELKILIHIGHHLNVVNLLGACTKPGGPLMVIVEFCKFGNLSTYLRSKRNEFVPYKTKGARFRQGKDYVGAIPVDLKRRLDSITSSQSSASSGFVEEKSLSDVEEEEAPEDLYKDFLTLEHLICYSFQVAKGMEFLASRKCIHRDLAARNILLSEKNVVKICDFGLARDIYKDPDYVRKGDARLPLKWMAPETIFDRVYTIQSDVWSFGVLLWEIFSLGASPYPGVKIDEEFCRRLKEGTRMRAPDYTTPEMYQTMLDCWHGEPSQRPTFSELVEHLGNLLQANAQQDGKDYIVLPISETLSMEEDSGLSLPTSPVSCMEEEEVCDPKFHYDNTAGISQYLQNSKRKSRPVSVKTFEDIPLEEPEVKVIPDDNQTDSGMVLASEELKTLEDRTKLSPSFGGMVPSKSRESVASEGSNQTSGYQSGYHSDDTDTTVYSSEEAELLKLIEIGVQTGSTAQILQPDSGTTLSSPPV
PIK3CA(E545K), sequence (P42336 whole entry E545K): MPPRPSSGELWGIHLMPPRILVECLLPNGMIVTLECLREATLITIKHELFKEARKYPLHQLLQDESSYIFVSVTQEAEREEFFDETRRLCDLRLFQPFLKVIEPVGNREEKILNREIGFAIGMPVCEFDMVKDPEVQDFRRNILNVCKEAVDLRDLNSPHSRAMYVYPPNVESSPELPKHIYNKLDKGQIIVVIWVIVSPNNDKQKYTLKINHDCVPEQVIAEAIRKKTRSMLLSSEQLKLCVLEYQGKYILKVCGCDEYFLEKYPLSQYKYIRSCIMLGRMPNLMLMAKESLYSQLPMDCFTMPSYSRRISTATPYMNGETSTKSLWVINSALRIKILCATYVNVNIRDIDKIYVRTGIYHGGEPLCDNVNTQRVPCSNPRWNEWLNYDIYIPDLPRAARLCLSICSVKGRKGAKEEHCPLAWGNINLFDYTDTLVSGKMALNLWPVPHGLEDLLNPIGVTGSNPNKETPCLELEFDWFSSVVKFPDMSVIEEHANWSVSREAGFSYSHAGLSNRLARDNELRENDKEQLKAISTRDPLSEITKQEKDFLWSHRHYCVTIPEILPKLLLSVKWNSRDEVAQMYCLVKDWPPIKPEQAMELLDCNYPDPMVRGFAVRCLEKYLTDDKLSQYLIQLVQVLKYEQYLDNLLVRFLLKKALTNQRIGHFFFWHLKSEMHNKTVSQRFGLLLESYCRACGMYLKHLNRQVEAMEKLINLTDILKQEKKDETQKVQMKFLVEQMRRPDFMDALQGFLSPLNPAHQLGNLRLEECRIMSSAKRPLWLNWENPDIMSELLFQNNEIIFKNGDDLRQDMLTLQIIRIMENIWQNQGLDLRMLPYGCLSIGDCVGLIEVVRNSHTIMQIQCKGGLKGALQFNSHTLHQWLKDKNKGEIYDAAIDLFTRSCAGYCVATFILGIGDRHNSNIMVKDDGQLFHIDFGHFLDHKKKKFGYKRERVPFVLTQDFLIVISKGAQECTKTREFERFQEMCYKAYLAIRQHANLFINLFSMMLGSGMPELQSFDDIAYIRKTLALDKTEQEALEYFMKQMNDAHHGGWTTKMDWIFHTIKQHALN
CASK, sequence (O14936 whole entry): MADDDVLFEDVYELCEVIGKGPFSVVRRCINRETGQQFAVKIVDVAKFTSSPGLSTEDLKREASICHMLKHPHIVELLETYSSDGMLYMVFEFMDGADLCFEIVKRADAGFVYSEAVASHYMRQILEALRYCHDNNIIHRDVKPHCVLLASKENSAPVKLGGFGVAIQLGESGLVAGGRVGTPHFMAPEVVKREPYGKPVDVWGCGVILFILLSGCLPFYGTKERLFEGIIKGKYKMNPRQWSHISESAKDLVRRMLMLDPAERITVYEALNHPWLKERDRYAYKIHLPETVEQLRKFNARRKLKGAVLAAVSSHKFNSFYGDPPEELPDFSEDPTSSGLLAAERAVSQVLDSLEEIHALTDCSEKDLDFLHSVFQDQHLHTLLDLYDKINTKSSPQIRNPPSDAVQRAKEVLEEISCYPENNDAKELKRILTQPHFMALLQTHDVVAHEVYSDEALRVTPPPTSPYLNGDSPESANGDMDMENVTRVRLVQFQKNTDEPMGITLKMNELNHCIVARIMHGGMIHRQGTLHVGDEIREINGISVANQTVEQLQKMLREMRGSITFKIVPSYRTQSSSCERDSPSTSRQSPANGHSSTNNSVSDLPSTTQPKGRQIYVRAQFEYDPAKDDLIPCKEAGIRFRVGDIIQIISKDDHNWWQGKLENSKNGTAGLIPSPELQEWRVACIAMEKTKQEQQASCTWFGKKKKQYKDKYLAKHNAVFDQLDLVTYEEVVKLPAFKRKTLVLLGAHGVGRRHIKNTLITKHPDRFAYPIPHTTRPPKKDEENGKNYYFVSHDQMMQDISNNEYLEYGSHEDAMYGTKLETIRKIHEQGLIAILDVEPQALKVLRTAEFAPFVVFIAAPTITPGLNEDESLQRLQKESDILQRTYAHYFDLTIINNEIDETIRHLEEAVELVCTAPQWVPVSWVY
MYLK4, sequence (Q86YV6 whole entry): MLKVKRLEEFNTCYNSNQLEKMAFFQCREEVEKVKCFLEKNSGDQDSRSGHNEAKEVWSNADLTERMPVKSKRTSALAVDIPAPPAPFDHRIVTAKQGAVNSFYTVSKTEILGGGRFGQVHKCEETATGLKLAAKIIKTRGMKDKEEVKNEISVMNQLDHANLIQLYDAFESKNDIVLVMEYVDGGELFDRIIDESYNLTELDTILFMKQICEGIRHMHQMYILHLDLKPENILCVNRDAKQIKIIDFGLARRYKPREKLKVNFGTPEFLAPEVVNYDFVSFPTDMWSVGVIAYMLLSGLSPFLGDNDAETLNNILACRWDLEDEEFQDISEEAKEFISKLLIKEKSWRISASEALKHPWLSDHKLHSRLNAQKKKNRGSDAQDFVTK

Work on `C=CC(=O)Nc1ccc(OC)c(Nc2cc(-c3[nH]c(CC)nc3-c3cccc(NC(=O)c4cccc5c4NC(=O)c4ccccc4N5)c3)ccn2)c1` [Compound 4, N-(3-(5-(2-((5-Acrylamido-2-methoxyphenyl)amino)pyridin-4-yl)-2-ethyl-1H-imidazol-4-yl)phenyl)-11-oxo-10,11-dihydro-5H-dibenzo[b,e][1,4]diazepine-9-carboxamide] yielded a remaining binding at 1 µM (CASK) of 97%, a remaining binding at 1 µM (MYLK4) of 95% and a remaining binding at 1 µM (VEGFR2) of 100%. It also gave a remaining binding at 1 µM (PIK3CA(E545K)) of 100% and a remaining binding at 1 µM (AKT3) of 100%.
